Consider 20 compounds from US20250136595A1, “ACYLATED HETEROCYCLIC QUINAZOLINE DERIVATIVES AS INHIBITORS OF ERBB2” (Enliven Inc., priority 2022, published 2025).

For orientation: IC50 means the concentration at which inhibition is half-maximal.

Each structure is given as a SMILES string.

Assay [1] concerns the target T1, phosphorylated EGFR (pEGFR) (Homo sapiens, UniProt P00533).
T1 construct: performed to measure phosphorylated EGFR levels using A431 cells; endogenous in cells; host or cells: A431
The assay is described as follows: Detection of phosphorylated EGFR (pEGFR) in EGF-stimulated A431 cells (AlphaLISA). The assay is classed as cell-based. To be noted: A431 cells (10% FBS), 4 hours incubation, EGF 30 ng/mL for 10 minutes. The essentials:
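Cells in 10% FBS treated with compound 4 h at 37° C., then stimulated 10 min with 30 ng/mL EGF, lysed, and pEGFR measured by AlphaLISA. Inhibition normalized to DMSO and staurosporine controls; IC50 from four-parameter logistic fit.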
A general note: In Alpha technology, singlet oxygen from a donor bead excites a nearby acceptor bead.

The target in a further assay is Ba/F3 ERBB2 YVMA (Homo sapiens, UniProt P04626, DUP772-775, cells depend on it). The assay is described as follows: Cell viability assay (CellTiter Glo) in Ba/F3 cells engineered to express ERBB2 YVMA. To be noted: Ba/F3 cells expressing human ERBB2 YVMA mutant, 72 hours, % viability, read-out: Ba/F3 ERBB2 YVMA IC50. The assay is classed as cell-based, mouse. The essentials: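 IL-3-independent mouse Ba/F3 line stably transduced with human ERBB2 YVMA, seeded at 3000 cells/well, exposed to serially diluted compound (≤0.1% DMSO) for 72 h at 37° C. ATP read by CellTiter Glo luminescence, normalised to DMSO and media-only controls; sigmoidal nonlinear regression fit.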
Chain of Ba/F3 ERBB2 YVMA (P04626 with tags, fused parts or gaps DUP772-775): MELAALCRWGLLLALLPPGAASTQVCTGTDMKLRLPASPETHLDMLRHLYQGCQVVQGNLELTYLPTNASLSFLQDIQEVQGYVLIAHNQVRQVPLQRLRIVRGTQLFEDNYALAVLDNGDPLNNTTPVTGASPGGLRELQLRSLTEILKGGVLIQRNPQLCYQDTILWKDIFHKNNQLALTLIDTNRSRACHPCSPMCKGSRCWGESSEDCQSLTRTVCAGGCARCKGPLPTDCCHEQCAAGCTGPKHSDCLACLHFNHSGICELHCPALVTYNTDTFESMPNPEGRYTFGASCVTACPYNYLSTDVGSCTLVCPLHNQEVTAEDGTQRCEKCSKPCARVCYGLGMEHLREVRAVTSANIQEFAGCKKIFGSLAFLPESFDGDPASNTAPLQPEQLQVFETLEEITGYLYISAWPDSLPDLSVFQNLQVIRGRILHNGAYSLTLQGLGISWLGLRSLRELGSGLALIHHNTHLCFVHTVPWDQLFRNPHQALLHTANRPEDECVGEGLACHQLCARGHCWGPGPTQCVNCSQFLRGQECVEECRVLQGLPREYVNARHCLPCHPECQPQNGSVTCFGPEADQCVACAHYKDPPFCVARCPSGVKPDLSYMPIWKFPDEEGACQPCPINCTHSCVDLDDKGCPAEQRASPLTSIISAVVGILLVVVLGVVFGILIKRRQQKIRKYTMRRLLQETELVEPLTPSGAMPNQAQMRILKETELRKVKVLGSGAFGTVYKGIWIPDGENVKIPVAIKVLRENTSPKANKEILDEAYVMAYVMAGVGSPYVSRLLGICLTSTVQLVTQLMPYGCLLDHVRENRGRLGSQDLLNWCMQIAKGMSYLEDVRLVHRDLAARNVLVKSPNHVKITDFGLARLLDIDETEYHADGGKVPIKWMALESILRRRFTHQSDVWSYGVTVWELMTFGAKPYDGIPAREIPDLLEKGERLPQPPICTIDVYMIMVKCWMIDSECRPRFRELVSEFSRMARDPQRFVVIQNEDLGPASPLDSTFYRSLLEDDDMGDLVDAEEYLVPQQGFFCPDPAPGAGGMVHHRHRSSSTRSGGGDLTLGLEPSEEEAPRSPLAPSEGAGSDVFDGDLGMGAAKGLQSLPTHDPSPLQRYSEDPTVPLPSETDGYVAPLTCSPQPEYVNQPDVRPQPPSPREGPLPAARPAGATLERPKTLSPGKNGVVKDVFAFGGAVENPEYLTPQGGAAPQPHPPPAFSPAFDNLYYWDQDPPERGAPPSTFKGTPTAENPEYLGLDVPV
On the technique in general: Cellular ATP, detected with luciferase, serves as a proxy for viable cell number.

The target of assay [2] is T2, phosphorylated ERBB2 (pERBB2) (Homo sapiens, UniProt P04626).
T2 construct: endogenous in cells; host or cells: BT-474
T2 sequence (P04626 23-1255): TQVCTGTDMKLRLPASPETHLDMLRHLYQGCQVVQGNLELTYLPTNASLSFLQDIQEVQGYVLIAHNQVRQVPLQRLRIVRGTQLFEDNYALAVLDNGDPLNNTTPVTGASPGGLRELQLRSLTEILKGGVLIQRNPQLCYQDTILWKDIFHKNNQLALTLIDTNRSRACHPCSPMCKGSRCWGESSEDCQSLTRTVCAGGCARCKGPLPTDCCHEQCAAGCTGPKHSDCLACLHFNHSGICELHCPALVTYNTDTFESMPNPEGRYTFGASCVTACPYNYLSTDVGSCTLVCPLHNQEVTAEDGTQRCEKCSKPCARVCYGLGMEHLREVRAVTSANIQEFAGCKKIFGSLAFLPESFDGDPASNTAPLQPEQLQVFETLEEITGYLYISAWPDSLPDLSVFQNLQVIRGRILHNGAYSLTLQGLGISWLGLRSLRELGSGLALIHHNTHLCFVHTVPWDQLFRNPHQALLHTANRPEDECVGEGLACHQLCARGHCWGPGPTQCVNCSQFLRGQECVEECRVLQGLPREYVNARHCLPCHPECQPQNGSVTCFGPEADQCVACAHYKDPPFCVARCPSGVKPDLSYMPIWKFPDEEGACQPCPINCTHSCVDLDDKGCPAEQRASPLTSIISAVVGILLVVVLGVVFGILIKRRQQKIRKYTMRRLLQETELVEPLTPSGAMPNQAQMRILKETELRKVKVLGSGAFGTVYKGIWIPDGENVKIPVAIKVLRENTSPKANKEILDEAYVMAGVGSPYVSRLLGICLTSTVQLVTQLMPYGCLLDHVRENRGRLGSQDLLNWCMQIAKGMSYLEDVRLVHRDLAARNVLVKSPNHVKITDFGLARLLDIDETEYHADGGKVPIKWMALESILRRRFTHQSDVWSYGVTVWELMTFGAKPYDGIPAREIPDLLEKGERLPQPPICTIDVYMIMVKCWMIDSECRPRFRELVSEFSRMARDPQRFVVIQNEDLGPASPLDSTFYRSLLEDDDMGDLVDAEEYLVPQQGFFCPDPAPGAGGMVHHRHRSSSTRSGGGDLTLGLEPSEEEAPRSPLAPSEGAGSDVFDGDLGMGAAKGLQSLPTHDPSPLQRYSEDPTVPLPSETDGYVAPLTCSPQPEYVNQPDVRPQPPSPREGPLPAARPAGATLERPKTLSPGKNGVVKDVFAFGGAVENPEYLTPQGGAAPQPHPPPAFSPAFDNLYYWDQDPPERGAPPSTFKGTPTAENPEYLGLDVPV
The assay is described as follows: Detection of phosphorylated ERBB2 (pERBB2) by ELISA in BT-474 cells. The assay is classed as cell-based. As to conditions: four hour incubation with compound. The gist of the method: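 BT-474 cells treated 4 h at 37 °C, 5% CO2 with four-fold dilutions (10 μM to 0.01 nM final). Lysates analysed by ELISA for pERBB2, TMB read at OD 450 nm. % relative activity normalised to no-cell (low) and 0.1% DMSO-treated (high) controls.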

T1 sequence (P00533 25-1210): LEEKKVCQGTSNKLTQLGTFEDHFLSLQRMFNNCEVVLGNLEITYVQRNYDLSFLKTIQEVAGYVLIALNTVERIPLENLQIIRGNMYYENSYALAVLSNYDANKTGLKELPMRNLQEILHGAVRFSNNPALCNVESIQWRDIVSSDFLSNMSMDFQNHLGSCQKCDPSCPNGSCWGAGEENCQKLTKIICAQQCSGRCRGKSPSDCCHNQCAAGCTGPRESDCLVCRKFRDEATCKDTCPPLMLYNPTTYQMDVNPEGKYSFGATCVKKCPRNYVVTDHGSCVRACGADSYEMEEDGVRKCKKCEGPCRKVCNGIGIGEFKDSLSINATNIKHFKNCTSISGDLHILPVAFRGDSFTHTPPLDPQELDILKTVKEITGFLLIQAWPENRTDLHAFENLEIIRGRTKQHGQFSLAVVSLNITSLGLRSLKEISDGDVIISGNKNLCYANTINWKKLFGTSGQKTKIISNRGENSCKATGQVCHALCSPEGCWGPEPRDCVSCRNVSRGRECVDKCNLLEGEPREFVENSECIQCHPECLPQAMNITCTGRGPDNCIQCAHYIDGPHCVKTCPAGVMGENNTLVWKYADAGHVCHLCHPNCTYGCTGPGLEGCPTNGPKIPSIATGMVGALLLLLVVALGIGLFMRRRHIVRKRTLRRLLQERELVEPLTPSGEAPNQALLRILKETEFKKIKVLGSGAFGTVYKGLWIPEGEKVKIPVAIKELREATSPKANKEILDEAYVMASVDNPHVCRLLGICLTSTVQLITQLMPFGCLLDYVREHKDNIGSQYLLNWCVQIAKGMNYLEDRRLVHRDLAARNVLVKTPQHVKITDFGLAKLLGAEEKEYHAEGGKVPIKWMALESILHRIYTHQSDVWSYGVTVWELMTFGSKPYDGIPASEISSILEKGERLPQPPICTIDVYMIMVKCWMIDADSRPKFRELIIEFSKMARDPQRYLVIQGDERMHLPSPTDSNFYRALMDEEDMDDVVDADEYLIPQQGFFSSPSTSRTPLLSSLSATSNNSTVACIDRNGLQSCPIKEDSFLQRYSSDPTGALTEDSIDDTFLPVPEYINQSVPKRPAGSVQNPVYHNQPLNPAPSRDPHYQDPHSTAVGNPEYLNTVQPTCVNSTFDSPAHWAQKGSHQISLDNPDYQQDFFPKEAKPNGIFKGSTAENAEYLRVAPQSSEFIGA

As to `C=CC(=O)N1CCN(c2ccc3ncnc(Nc4ccc(Oc5ccc6c(c5)ncn6C)c(C)c4)c3n2)CC1` [Compound 14, 1-{4-[4-({3-methyl-4-[(1-methyl-1,3-benzodiazol-5-yl)oxy]phenyl}amino)pyrido[3,2-d]pyrimidin-6-yl]piperazin-1-yl}prop-2-en-1-one], the figures for the IC50 in assay [1] and in assay [2] were 403 nM and 14.3 nM, respectively. Besides, the GI50 on Ba/F3 ERBB2 YVMA amounted to 7.83 nM.

Regarding `CC#CC(=O)N1CCN(c2ccc3ncnc(Nc4ccc(O[C@@H]5CCCOC5)c(C)c4)c3n2)CC1` [Compound 32, 1-{4-[4-({3-methyl-4-[(3R)-oxan-3-yloxy]phenyl}amino)pyrido[3,2-d]pyrimidin-6-yl]piperazin-1-yl}but-2-yn-1-one], the IC50 worked out at 3820 nM in assay [1] and 334 nM in assay [2]. Besides, the GI50 on Ba/F3 ERBB2 YVMA stood at 288 nM.

In the case of `C=CC(=O)N1CCC(Nc2ccc3ncnc(Nc4ccc(Oc5ccn6ncnc6c5)c(C)c4)c3n2)CC1` [Compound 40, 1-[4-({4-[(3-methyl-4-{[1,2,4]triazolo[1,5-a]pyridin-7-yloxy}phenyl)amino]pyrido[3,2-d]pyrimidin-6-yl}amino)piperidin-1-yl]prop-2-en-1-one], the half-maximal inhibitory concentration (IC50) in assay [1] is 22 nM; in assay [2], 6.1 nM. Besides, the GI50 at Ba/F3 ERBB2 YVMA came out at 5.81 nM.

Consider `C=CC(=O)N1CCN(c2cc3c(Nc4ccc(Oc5ccn6ncnc6c5)c(C)c4)ncnc3cn2)CC1` [Compound 109, 1-(4-(4-((4-([1,2,4]triazolo[1,5-a]pyridin-7-yloxy)-3-methylphenyl)amino)pyrido[3,4-d]pyrimidin-6-yl)piperazin-1-yl)prop-2-en-1-one], for which the half-inhibitory concentration (IC50) came out at 839 nM in assay [1] and 10.2 nM in assay [2]. Moreover, the GI50 at Ba/F3 ERBB2 YVMA was 13.4 nM.

Turning to `Cc1cc(Nc2ncnc3ccc(N4CCN(C(=O)/C=C/CN(C)C)[C@H](C)C4)nc23)ccc1Oc1ccc2c(c1)ncn2C` [Compound 80, (2E)-4-(dimethylamino)-1-[(2R)-2-methyl-4-[4-({3-methyl-4-[(1-methyl-1,3-benzodiazol-5-yl)oxy]phenyl}amino)pyrido[3,2-d]pyrimidin-6-yl]piperazin-1-yl]but-2-en-1-one], the half-maximal inhibitory concentration (IC50) in assay [1] was 2760 nM; in assay [2] it was 28.8 nM. Also, the GI50 at Ba/F3 ERBB2 YVMA was determined as 11.3 nM.

Take `C=C(F)C(=O)N1CCN(c2ccc3ncnc(Nc4ccc(Oc5ccn6ncnc6c5)c(C)c4)c3n2)CC1` [Compound 13, 2-fluoro-1-(4-{4-[(3-methyl-4-{[1,2,4]triazolo[1,5-a]pyridin-7-yloxy}phenyl)amino]pyrido[3,2-d]pyrimidin-6-yl}piperazin-1-yl)prop-2-en-1-one]: the IC50 in assay [1] is greater than 10000 nM; in assay [2], 97.5 nM. Besides, the GI50 on Ba/F3 ERBB2 YVMA worked out at 232 nM.

As for `Cc1cc(Nc2ncnc3ccc(N4CCN(C(=O)/C=C/CN(C)C)CC4)c(F)c23)ccc1Cc1ccn2ncnc2c1` [Compound 92, (2E)-4-(dimethylamino)-1-(4-{5-fluoro-4-[(3-methyl-4-{[1,2,4]triazolo[1,5-a]pyridin-7-ylmethyl}phenyl)amino]quinazolin-6-yl}piperazin-1-yl) but-2-en-1-one], the results for the IC50 in assay [1] and in assay [2] were greater than 10000 nM and 31.6 nM, respectively. The GI50 at Ba/F3 ERBB2 YVMA came out at 110 nM.

As for `C=CC(=O)N1CCN(c2ccc3ncnc(Nc4ccc(Oc5ccc6c(c5)ncn6C)c(C)c4)c3n2)[C@@H](C)C1` [Compound 67, 1-[(3S)-3-methyl-4-[4-({3-methyl-4-[(1-methyl-1,3-benzodiazol-5-yl)oxy]phenyl}amino)pyrido[3,2-d]pyrimidin-6-yl]piperazin-1-yl]prop-2-en-1-one], the 50% inhibitory concentration (IC50) in assay [1] amounted to 2490 nM; in assay [2] it was 28.2 nM. The GI50 on Ba/F3 ERBB2 YVMA was found to be 13.9 nM.

Consider `C=CC(=O)N1CCN(c2ccc3ncnc(Nc4ccc(O[C@@H]5CCCOC5)c(C)c4)c3n2)CC1` [Compound 98, 1-{4-[4-({3-methyl-4-[(3R)-oxan-3-yloxy]phenyl}amino)pyrido[3,2-d]pyrimidin-6-yl]piperazin-1-yl}prop-2-en-1-one], for which the results for the concentration for half-maximal inhibition (IC50) in assay [1] and in assay [2] were 186 nM and 65.6 nM, respectively. In addition, the GI50 on Ba/F3 ERBB2 YVMA worked out at 64.4 nM.

Consider `C=CC(=O)N1CCN(c2ncc3ncnc(Nc4ccc(Cc5ccc6c(c5)ncn6C)c(C)c4)c3n2)[C@@H](C)C1` [Compound 77, 1-[(3S)-3-methyl-4-[8-({3-methyl-4-[(1-methyl-1,3-benzodiazol-5-yl)methyl]phenyl}amino)-[1,3]diazino[5,4-d]pyrimidin-2-yl]piperazin-1-yl]prop-2-en-1-one], for which the IC50 amounted to 3550 nM in assay [1] and 73.4 nM in assay [2]. Moreover, the GI50 on Ba/F3 ERBB2 YVMA was 16.4 nM.

Turning to `C=CC(=O)N1CC2CC1CN2c1ccc2ncnc(Nc3ccc(Cc4ccn5ncnc5c4)c(C)c3)c2n1` (stereo not drawn) [Compound 128, 1-(5-(4-((4-([1,2,4]triazolo[1,5-a]pyridin-7-ylmethyl)-3-methylphenyl)amino)pyrido[3,2-d]pyrimidin-6-yl)-2,5-diazabicyclo[2.2.1]heptan-2-yl)prop-2-en-1-one], the half-inhibitory concentration (IC50) in assay [1] was 530 nM; in assay [2] it was 19.8 nM. Moreover, on Ba/F3 ERBB2 YVMA, the GI50 was found to be 7.45 nM.

On to `C=CC(=O)N1[C@H](C)CN(c2ccc3ncnc(Nc4ccc(Oc5ccn6ncnc6c5)c(C)c4)c3n2)C[C@@H]1C` [Compound 60, 1-(cis-4-(4-((4-([1,2,4]triazolo[1,5-a]pyridin-7-yloxy)-3-methylphenyl)amino)pyrido[3,2-d]pyrimidin-6-yl)-2,6-dimethylpiperazin-1-yl)prop-2-en-1-one], for which the concentration for half-maximal inhibition (IC50) was determined as 3780 nM in assay [1] and 23.7 nM in assay [2]. For the same compound, at Ba/F3 ERBB2 YVMA, the GI50 was 14.3 nM.

In the case of `C=CC(=O)N1CCN(c2ncc3ncnc(Nc4ccc(Oc5ccn6ncnc6c5)c(C)c4)c3n2)C[C@H]1C` [Compound 56, 1-[(2R)-2-methyl-4-{8-[(3-methyl-4-{[1,2,4]triazolo[1,5-a]pyridin-7-yloxy}phenyl)amino]pyrimido[5,4-d][1,3]diazin-2-yl}piperazin-1-yl]prop-2-en-1-one], the IC50 in assay [1] came to 1050 nM; in assay [2] it was 14.8 nM. Besides, at Ba/F3 ERBB2 YVMA, the GI50 came out at 7.86 nM.

With `C=CC(=O)N1CCN(c2cc3c(Nc4ccc(O[C@@H]5CCCOC5)c(C)c4)ncnc3cn2)CC1` [Compound 100, 1-{4-[4-({3-methyl-4-[(3R)-oxan-3-yloxy]phenyl}amino)pyrido[3,4-d]pyrimidin-6-yl]piperazin-1-yl}prop-2-en-1-one], the half-inhibitory concentration (IC50) in assay [1] was determined as 337 nM; in assay [2], 63.7 nM. Besides, the GI50 on Ba/F3 ERBB2 YVMA came out at 98.5 nM.

Regarding `C=CC(=O)N1CCN(c2ccc3ncnc(Nc4ccc(Oc5ccn6ncnc6c5)c(C)c4)c3n2)C[C@H]1C` [Compound 10, 1-[(2R)-2-methyl-4-{4-[(3-methyl-4-{[1,2,4]triazolo[1,5-a]pyridin-7-yloxy}phenyl)amino]pyrido[3,2-d]pyrimidin-6-yl}piperazin-1-yl]prop-2-en-1-one], the IC50 in assay [1] came to 294 nM; in assay [2], 8.74 nM. Moreover, the GI50 on Ba/F3 ERBB2 YVMA stood at 4.61 nM.

Regarding `C=CC(=O)N1CCN(c2ccc3ncnc(Nc4ccc(Cc5ccc6c(c5)ncn6C)c(C)c4)c3n2)[C@@H](C)C1` [Compound 68, (S)-1-(3-methyl-4-(4-((3-methyl-4-((1-methyl-1H-benzo[d]imidazol-5-yl)methyl)phenyl)amino)pyrido[3,2-d]pyrimidin-6-yl)piperazin-1-yl)prop-2-en-1-one], the IC50 in assay [1] amounted to 2570 nM; in assay [2] it was 44.8 nM. For the same compound, the GI50 on Ba/F3 ERBB2 YVMA is 14.7 nM.

With `C=CC(=O)N1CCN(c2ncc3ncnc(Nc4ccc(Cc5ccn6ncnc6c5)c(C)c4)c3n2)C[C@H]1C` [Compound 111, (R)-1-(4-(8-((4-([1,2,4]triazolo[1,5-a]pyridin-7-ylmethyl)-3-methylphenyl)amino)pyrimido[5,4-d]pyrimidin-2-yl)-2-methylpiperazin-1-yl)prop-2-en-1-one], the IC50 in assay [1] was 5460 nM; in assay [2] it was 28.1 nM. Also, the GI50 at Ba/F3 ERBB2 YVMA was 22.7 nM.

With `Cc1cc(Nc2ncnc3ccc(N4CCN(C(=O)/C=C/CN(C)C)C[C@@H]4C)nc23)ccc1Cc1ccc2c(c1)ncn2C` [Compound 126, (S,E)-4-(dimethylamino)-1-(3-methyl-4-(4-((3-methyl-4-((1-methyl-1H-benzo[d]imidazol-5-yl)methyl)phenyl)amino)pyrido[3,2-d]pyrimidin-6-yl)piperazin-1-yl)but-2-en-1-one], the half-maximal inhibitory concentration (IC50) in assay [1] is greater than 10000 nM; in assay [2], 145 nM. Moreover, the GI50 on Ba/F3 ERBB2 YVMA stood at 29.6 nM.

As to `C=CC(=O)N1CC2CCC(C1)N2c1ccc2ncnc(Nc3ccc(Oc4ccn5ncnc5c4)c(C)c3)c2n1` [Compound 17, 1-(8-{4-[(3-methyl-4-{[1,2,4]triazolo[1,5-a]pyridin-7-yloxy}phenyl)amino]pyrido[3,2-d]pyrimidin-6-yl}-3,8-diazabicyclo[3.2.1]octan-3-yl)prop-2-en-1-one], the 50% inhibitory concentration (IC50) in assay [1] turned out to be 179 nM; in assay [2], 20.1 nM. Also, the GI50 at Ba/F3 ERBB2 YVMA turned out to be 5.91 nM.

Regarding `C=CC(=O)N1CC2CC1CN2c1ccc2ncnc(Nc3ccc(Oc4ccn5ncnc5c4)c(C)c3)c2n1` (stereo not drawn) [Compound 6, 1-(5-{4-[(3-methyl-4-{[1,2,4]triazolo[1,5-a]pyridin-7-yloxy}phenyl)amino]pyrido[3,2-d]pyrimidin-6-yl}-2,5-diazabicyclo[2.2.1]heptan-2-yl)prop-2-en-1-one], the IC50 is 134 nM in assay [1] and 13.9 nM in assay [2]. Moreover, at Ba/F3 ERBB2 YVMA, the GI50 came to 5.65 nM.
